Assay results taken from patent publication US20240025906A1 (NEURON23, INC., priority 2022, published 2024).

Tests used:
TYK2 JH2 = biological target: T1, TYK2 JH2 (Homo sapiens, UniProt P29597); experiment: TYK2 JH2 binding assay (KINOMEscan KdELECT competitive binding); details: TYK2 JH2 domain, KINOMEscan KdELECT (Assay A); read-out: Biochemical TYK2_DiscoverX_JH2_BND_Kd
T1 construct: purchased DiscoverX (KINOMEscan KdELECT service); host or cells: E. coli BL21-derived (T7 phage display) or HEK-293
Method in brief: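 JH2-domain fragment, expressed as T7 phage tag in BL21-derived E. coli or DNA-tagged from HEK-293, competed with test compound against bead-immobilized biotinylated ligand in binding buffer (0.9% DMSO). 1 h shaking at room temperature; bound kinase eluted with 0.5 μM free ligand and quantified by qPCR. Kd from 11-point 3-fold dilutions.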

[1] = test system: JAK1/TYK2 pSTAT5 (Tyr694/699) in THP-1 cell line; experiment: IFNa-stimulated JAK1/TYK2 pSTAT5 (Tyr694/699) inhibition cellular assay, AlphaLISA; format: cell-based; details: Homo sapiens; THP-1 cells, IFNa-stimulated, AlphaLISA (Assay B); read-out: Cellular_THP1_IFNa-pSTATS_TYK2
Method in brief: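 THP-1 cells (2e4/well) in HBSS preincubated 1 h at 37° C. with compound (final 10000–0.04 nM, 8 points, 6-fold), then stimulated with IFNa (100 ng/mL stock) for 30 min before lysis. pSTAT5 (Tyr694/699) read by AlphaLISA at 615 nm; IC50 from four-parameter logistic fit with bottom fixed at 0 and Hill slope at −1.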

T1 sequence (P29597 589-875 limits assumed): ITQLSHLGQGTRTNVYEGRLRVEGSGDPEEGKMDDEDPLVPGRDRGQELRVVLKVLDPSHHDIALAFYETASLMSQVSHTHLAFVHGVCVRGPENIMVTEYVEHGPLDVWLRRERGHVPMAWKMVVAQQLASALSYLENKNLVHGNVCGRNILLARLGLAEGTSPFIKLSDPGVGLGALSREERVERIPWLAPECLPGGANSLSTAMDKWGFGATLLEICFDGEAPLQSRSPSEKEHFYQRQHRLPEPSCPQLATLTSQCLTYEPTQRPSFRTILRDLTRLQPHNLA

Compound | Kd (TYK2 JH2) [nM] | IC50 [1] [nM]
CNc1ncc(C#Cc2ccc(O[C@@H]3CCOC3)cc2)c2cc(NC(=O)C3CC3)ncc12 [Example 690, (R)—N-(8-(methylamino)-5-((4-((tetrahydrofuran-3-yl)oxy)phenyl)ethynyl)-2,7-naphthyridin-3-yl)cyclopropanecarboxamide] | ≤ 100 | ≤ 500
CNc1ncc(C#Cc2ccc(O[C@H]3CCOC3)cc2)c2cc(NC(=O)C3CC3)ncc12 [Example 691, (S)—N-(8-(methylamino)-5-((4-((tetrahydrofuran-3-yl)oxy)phenyl)ethynyl)-2,7-naphthyridin-3-yl)cyclopropanecarboxamide] | ≤ 100 | ≤ 500
CNc1ncc(C#Cc2ccc3c(c2)OCC(COC)O3)c2cc(NC(=O)C3CC3)ncc12 (centres unmarked) [Example 697, N-(5-((2-(methoxymethyl)-2,3-dihydrobenzo[b][1,4]dioxin-6-yl)ethynyl)-8-(methylamino)-2,7-naphthyridin-3-yl)cyclopropanecarboxamide] | ≤ 100 | ≤ 500
CNc1ncc(C#Cc2ccc(OCC3(C)COC3)cc2)c2cc(NC(=O)C3CC3)ncc12 [Example 701, N-(8-(methylamino)-5-((4-((3-methyloxetan-3-yl)methoxy)phenyl)ethynyl)-2,7-naphthyridin-3-yl)cyclopropanecarboxamide] | ≤ 100 | ≤ 500
CNc1ncc(C#Cc2ccc(OC3CN(C(C)=O)C3)cc2)c2cc(NC(=O)C3CC3)ncc12 [Example 705, N-(5-((4-((1-acetylazetidin-3-yl)oxy)phenyl)ethynyl)-8-(methylamino)-2,7-naphthyridin-3-yl)cyclopropanecarboxamide] | ≤ 100 | ≤ 500
CNc1ncc(C#Cc2ccc(OC3(C)COC3)cc2)c2cc(NC(=O)C3CC3)ncc12 [Example 706, N-(8-(methylamino)-5-((4-((3-methyloxetan-3-yl)oxy)phenyl)ethynyl)-2,7-naphthyridin-3-yl)cyclopropanecarboxamide] | ≤ 100 | ≤ 500
CNc1ncc(C#Cc2ccc(OC3COC3)cc2)c2cc(NC(=O)C3CC3)ncc12 [Example 707, N-(8-(methylamino)-5-((4-(oxetan-3-yloxy)phenyl)ethynyl)-2,7-naphthyridin-3-yl)cyclopropanecarboxamide] | ≤ 100 | ≤ 500
CNc1ncc(C#Cc2ccc(N3CCO[C@H](C)C3)cc2)c2cc(NC(=O)C3CC3)ncc12 [Example 708, (R)—N-(8-(methylamino)-5-((4-(2-methylmorpholino)phenyl)ethynyl)-2,7-naphthyridin-3-yl)cyclopropanecarboxamide] | ≤ 100 | ≤ 500
CNc1ncc(C#Cc2ccc(OCC(C)(C)C#N)cc2)c2cc(NC(=O)C3CC3)ncc12 [Example 710, N-(5-((4-(2-cyano-2-methylpropoxy)phenyl)ethynyl)-8-(methylamino)-2,7-naphthyridin-3-yl)cyclopropanecarboxamide] | ≤ 100 | ≤ 500

The next lines start with the values.

Kd (TYK2 JH2) [nM] | IC50 [1] [nM] | Compound
≤ 100 | ≤ 500 | CNc1ncc(C#Cc2ccc3nnn(C4CC4)c3c2)c2cc(NC(=O)C3CC3)ncc12 [Example 687, N-(5-((1-cyclopropyl-1H-benzo[d][1,2,3]triazol-6-yl)ethynyl)-8-(methylimino)-2,7-naphthyridin-3-yl)cyclopropanecarboxamide]
≤ 100 | ≤ 500 | CNc1ncc(C#Cc2ccc3nnn(CCCOC)c3c2)c2cc(NC(=O)C3CC3)ncc12 [Example 688, N-(5-((1-(3-methoxypropyl)-1H-benzo[d][1,2,3]triazol-6-yl)ethynyl)-8-(methylamino)-2,7-naphthyridin-3-yl)cyclopropanecarboxamide]
≤ 100 | ≤ 500 | CNc1ncc(C#Cc2cc3c(cn2)nnn3C)c2cc(NC(=O)C3CC3)ncc12 [Example 689, N-(5-((1-methyl-1H-[1,2,3]triazolo[4,5-c]pyridin-6-yl)ethynyl)-8-(methylamino)-2,7-naphthyridin-3-yl)cyclopropanecarboxamide]
≤ 100 | ≤ 500 | CNc1ncc(C#Cc2ccc3nc(COC)n(C)c3c2)c2cc(NC(=O)C3CC3)ncc12 [Example 692, N-(5-((2-(methoxymethyl)-1-methyl-1H-benzoimidazol-6-yl)ethynyl)-8-(methylamino)-2,7-naphthyridin-3-yl)cyclopropanecarboxamide]
≤ 100 | ≤ 500 | CNc1ncc(C#Cc2ccc3ncn(CCCOC)c3c2)c2cc(NC(=O)C3CC3)ncc12 [Example 693, N-(5-((1-(3-methoxypropyl)-1H-benzo[d]imidazol-6-yl)ethynyl)-8-(methylamino)-2,7-naphthyridin-3-yl)cyclopropanecarboxamide]
≤ 100 | ≤ 500 | CNc1ncc(C#Cc2ccc3ncn(CCCC#N)c3c2)c2cc(NC(=O)C3CC3)ncc12 [Example 694, N-(5-((1-(3-cyanopropyl)-1H-benzo[d]imidazol-6-yl)ethynyl)-8-(methylamino)-2,7-naphthyridin-3-yl)cyclopropanecarboxamide]
≤ 100 | ≤ 500 | CNc1ncc(C#Cc2ccc3c(c2)ncn3CCCC#N)c2cc(NC(=O)C3CC3)ncc12 [Example 695, N-(5-((1-(3-cyanopropyl)-1H-benzo[d]imidazol-5-yl)ethynyl)-8-(methylamino)-2,7-naphthyridin-3-yl)cyclopropanecarboxamide]
≤ 100 | ≤ 500 | CNc1ncc(C#Cc2ccc3c(c2)OCC(CO)O3)c2cc(NC(=O)C3CC3)ncc12 (centres unmarked) [Example 696, N-(5-((2-(hydroxymethyl)-2,3-dihydrobenzo[b][1,4]dioxin-6-yl)ethynyl)-8-(methylamino)-2,7-naphthyridin-3-yl)cyclopropanecarboxamide]
≤ 100 | ≤ 500 | CNc1ncc(C#Cc2cc3c(cc2C)nnn3C)c2cc(NC(=O)C3CC3)ncc12 [Example 700, N-(5-((1,5-dimethyl-1H-benzo[d][1,2,3]triazol-6-yl)ethynyl)-8-(methylamino)-2,7-naphthyridin-3-yl)cyclopropanecarboxamide]
≤ 100 | ≤ 500 | CNc1ncc(C#Cc2ccc(OCC3CCO3)cc2)c2cc(NC(=O)C3CC3)ncc12 (centres unmarked) [Example 702, N-(8-(methylamino)-5-((4-(oxetan-2-ylmethoxy)phenyl)ethynyl)-2,7-naphthyridin-3-yl)cyclopropanecarboxamide]
≤ 100 | ≤ 500 | CNc1ncc(C#Cc2ccc(OC[C@@H](C)OC)cc2)c2cc(NC(=O)C3CC3)ncc12 [Example 703, (R)—N-(5-((4-(2-methoxypropoxy)phenyl)ethynyl)-8-(methylamino)-2,7-naphthyridin-3-yl)cyclopropanecarboxamide]
≤ 100 | ≤ 500 | CNc1ncc(C#Cc2ccc(OC[C@H](C)OC)cc2)c2cc(NC(=O)C3CC3)ncc12 [Example 704, (S)—N-(5-((4-(2-methoxypropoxy)phenyl)ethynyl)-8-(methylamino)-2,7-naphthyridin-3-yl)cyclopropanecarboxamide]
≤ 100 | ≤ 500 | CNc1ncc(C#Cc2ccc(N3CCO[C@@H](C)C3)cc2)c2cc(NC(=O)C3CC3)ncc12 [Example 709, (S)—N-(8-(methylamino)-5-((4-(2-methylmorpholino)phenyl)ethynyl)-2,7-naphthyridin-3-yl)cyclopropanecarboxamide]
